Common to all, as to format: cell-based
One test concerns Escherichia coli DC-2. In words: In vitro antibacterial MIC, agar dilution (BHI agar). To be noted: 35-37° C., 20 to 24 hours, unit assumed. How it is done:
(§1) Representative compounds of the present invention were assayed in vitro for antibacterial activity as follows: Twelve petri dishes containing successive aqueous dilutions of the test compound mixed with 10 mL of sterilized Brain Heart Infusion (BHI) agar (Difco 0418-01-5) were prepared. Each plate was inoculated with 1:100 (or 1:10 for slow-growing strains, such as Micrococcus and Streptococcus) dilutions of up to 32 different microorganisms, using a Steers replicator block. The inoculated plates were incubated at 35-37° C. for 20 to 24 hours. In addition, a control plate, using BHI agar containing no test compound, was prepared and incubated at the beginning and end of each test.
(§2) An additional plate containing a compound having known susceptibility patterns for the organisms being tested and belonging to the same antibiotic class as the test compound was also prepared and incubated as a further control, as well as to provide test-to-test comparability.
(§3) After incubation, each plate was visually inspected. The minimum inhibitory concentration (MIC) was defined as the lowest concentration of drug yielding no growth, a slight haze, or sparsely isolated colonies on the innoculum spot as compared to the growth control.
(In general: Agar dilution tests growth on a series of plates holding different concentrations.)

In test [1] the test system is Staphylococcus aureus A5177. The description is as above. As to conditions: 35-37° C., 20 to 24 hours, unit assumed. On the procedure: as §1
(§4) An additional plate containing a compound having known susceptibility patterns for the organisms being tested and belonging to the same antibiotic class as the test compound was also prepared and incubated as a further control, as well as to provide test-to-test comparability. Erythromycin A was used for this purpose.
(§5) After incubation, each plate was visually inspected. The minimum inhibitory concentration (MIC) was defined as the lowest concentration of drug yielding no growth, a slight haze, or sparsely isolated colonies on the innoculum spot as compared to the growth control. The results of this assay, which relate to the antibacterial activity of the compounds of the invention, are reported below in Table 1.

Test [2] has as its system Staphylococcus aureus NCTC10649M. Described as above. As to conditions: 35-37° C., 20 to 24 hours, unit assumed. On the procedure:
as §1, §4, §5

Test [3] has as its system Micrococcus luteus ATCC 4698. The description is as above. To be noted: 35-37° C., 20 to 24 hours, unit assumed. On the procedure:
as §1, §4, §5

The subject of test [4] is Staphylococcus aureus A-5278. Described as above. As to conditions: 35-37° C., 20 to 24 hours, unit assumed. On the procedure:
as §1, §4, §5

The subject of test [5] is Streptococcus pyogenes EES61. Described as above. As to conditions: 35-37° C., 20 to 24 hours, unit assumed. On the procedure:
as §1, §4, §5

Test [6] deals with Staphylococcus aureus CMX 642A. Described as above. As to conditions: 35-37° C., 20 to 24 hours, unit assumed. How it is done: as §1, §4, §5
Another test has as its system Candida albicans CCH 442. Described as above. As to conditions: 35-37° C., 20 to 24 hours, unit assumed. On the procedure: as §1, §4, §5
Test [7] deals with Mycobacterium smegmatis ATCC 114. The test is described as above. To be noted: 35-37° C., 20 to 24 hours, unit assumed. How it is done:
as §1, §4, §5

For test [8], the system named is Staphylococcus aureus CMX 553. The description is as above. As to conditions: 35-37° C., 20 to 24 hours, unit assumed. On the procedure: as §1, §4, §5
Test [9] has as its system Staphylococcus aureus ATCC 6538P. The description is as above. To be noted: 35-37° C., 20 to 24 hours, unit assumed. On the procedure:
as §1, §4, §5

Test [10] has as its system Streptococcus bovis A-5169. The test is described as above. As to conditions: 35-37° C., 20 to 24 hours, unit assumed. How it is done:
as §1, §4, §5

The subject of test [11] is Nocardia asteroides ATCC997O. The test is described as above. As to conditions: 35-37° C., 20 to 24 hours, unit assumed. How it is done: as §1, §4, §5
The subject of a further test is Escherichia coli JUHL. The description is as above. As to conditions: 35-37° C., 20 to 24 hours, unit assumed. On the procedure:
as §1, §4, §5

Test [12] concerns Streptococcus pyogenes PIU 2548. The description is as above. As to conditions: 35-37° C., 20 to 24 hours, unit assumed. How it is done: as §1, §4, §5
In test [13] the test system is Streptococcus agalactiae CMX 508. The test is described as above. As to conditions: 35-37° C., 20 to 24 hours, unit assumed. On the procedure: as §1, §4, §5
The next test has as its system Escherichia coli SS. Described as above. To be noted: 35-37° C., 20 to 24 hours, unit assumed. On the procedure: as §1, §4, §5
The test system of test [14] is Streptococcus pyogenes 930. The description is as above. As to conditions: 35-37° C., 20 to 24 hours, unit assumed. How it is done: as §1, §4, §5
Test [15] relates to Staphylococcus aureus 1775. The description is as above. As to conditions: 35-37° C., 20 to 24 hours, unit assumed. How it is done:
as §1, §4, §5

Test [16] concerns Micrococcus luteus ATCC 9341. The test is described as above. As to conditions: 35-37° C., 20 to 24 hours, unit assumed. How it is done: as §1, §4, §5
The test system of test [17] is Staphylococcus epidermidis 3519. Described as above. To be noted: 35-37° C., 20 to 24 hours, unit assumed. On the procedure:
as §1, §4, §5

In test [18] the test system is Streptococcus pneumonia ATCC63O3. As to the kind of experiment: Separate in vitro antibacterial assay (H. Influenza / S. Pneumonia). To be noted: protocol as for Table 1, unit assumed. How it is done:
as §1, §4, §5
(§6) In a separate assay representative compounds of the invention were assayed in vitro for antibacterial activity against H. Influenza Dill AMP R strain and S. Pneumonia, according to the protocol described above. The results of this assay, which relate to the antibacterial activity of compounds of the invention against the H. Influenza Dill AMP R and S. Pneumonia organisms, are shown below in Table 2.

Test [19] deals with Streptococcus pneumonia GYR 1171. The description is as above. As to conditions: protocol as for Table 1, unit assumed. How it is done: as §1, §4, §5, §6
For test [20], the system named is Streptococcus pneumonia 5649. The description is as above. As to conditions: protocol as for Table 1, unit assumed. On the procedure:
as §1, §4, §5, §6

Test [21] relates to Haemophilis influenzae DILL AMP R. The test is described as above. To be noted: protocol as for Table 1, unit assumed. On the procedure:
as §1, §4, §5, §6

Test [22] deals with Streptococcus pneumonia 5979. The test is described as above. To be noted: protocol as for Table 1, unit assumed. How it is done:
as §1, §2, §3

In brackets after ≈: the same amount, converted by molar mass. Some results are limits rather than exact numbers.

For orientation: MIC means the lowest concentration that inhibits growth of the organism. Higher therefore signals a less susceptible organism.

For the compound `CC[C@H]1OC(=O)[C@H](C)[C@@H](O[C@H]2C[C@@](C)(OC)[C@@H](O)[C@H](C)O2)[C@H](C)[C@@H](O[C@@H]2O[C@H](C)C[C@H](N(C)C)[C@H]2O)[C@](C)(O)C[C@@H](C)C(=O)[C@H](C)[C@@H](O)[C@]1(C)O` [Ery. A, Erythromycin A, reference compound], the MIC in the test on Escherichia coli DC-2 was more than 100 µg/mL; in test [1] it was 3.1 µg/mL (≈ 4.22 µM); in test [2] it was 0.39 µg/mL (≈ 0.531 µM); in test [3], 0.2 µg/mL (≈ 0.273 µM); in test [4] it was more than 100 µg/mL; in [5] it was 0.05 µg/mL (≈ 0.0681 µM). Moreover, the MIC in test [6] is 0.39 µg/mL (≈ 0.531 µM); against Candida albicans CCH 442, more than 100 µg/mL; in test [7] it was 3.1 µg/mL (≈ 4.22 µM); in test [8], 0.39 µg/mL (≈ 0.531 µM); in test [9] it was 0.2 µg/mL (≈ 0.273 µM); in test [10], 0.02 µg/mL (≈ 0.0273 µM). In addition, the MIC in test [11] is 0.1 µg/mL (≈ 0.136 µM); against Escherichia coli JUHL, more than 100 µg/mL; in test [12], 6.2 µg/mL (≈ 8.45 µM); in [13], 0.05 µg/mL (≈ 0.0681 µM); against Escherichia coli SS, 0.78 µg/mL (≈ 1.06 µM); in test [14], more than 100 µg/mL. For the same compound, the MIC in test [15] is more than 100 µg/mL; in test [16], 0.05 µg/mL (≈ 0.0681 µM); in [17] it was 0.39 µg/mL (≈ 0.531 µM). The MIC (antibacterial activity, Table 2) in test [18] amounted to 0.06 µg/mL (≈ 0.0818 µM); in [19] it was 0.06 µg/mL (≈ 0.0818 µM); in test [20] it was 16 µg/mL (≈ 21.8 µM); in [21], 4 µg/mL (≈ 5.45 µM).
For the compound `CCC1OC(=O)C(C)C(=O)C(C)C(OC2OC(C)CC(N(C)C)C2O)C(C)(OC(=O)NC(=O)c2ccccc2)CC(C)C(=NO)C(C)C2OC(=O)OC12C` (centres unmarked) [Ex. 1, Compound of Formula (IV-A): wherein A is —O—; X is N—OH; —M— is Absent, R^2 is Phenyl; and R^p is Hydrogen], the MIC in the test with Escherichia coli DC-2 was 100 µg/mL; in [1], 0.39 µg/mL; in [2], 0.39 µg/mL; in [3], 0.39 µg/mL; in test [4], more than 100 µg/mL; in test [5], 0.02 µg/mL. Further, the minimum inhibitory concentration (MIC) in the test with Candida albicans CCH 442 was more than 100 µg/mL; in test [7] it was 50 µg/mL; in test [9] it was 0.39 µg/mL; in test [10] it was 0.02 µg/mL; in test [11] it was 0.78 µg/mL; against Escherichia coli JUHL, 50 µg/mL. Moreover, the MIC in test [12] is 1.56 µg/mL; in [13] it was 0.02 µg/mL; against Escherichia coli SS, 0.39 µg/mL; in test [14] it was more than 100 µg/mL; in test [15], more than 100 µg/mL; in [17], 0.39 µg/mL. Further, the MIC (antibacterial activity, Table 2) in [22] is more than 64 µg/mL; in test [18] it was 0.03 µg/mL; in test [19] it was 0.03 µg/mL; in [20], 2 µg/mL; in [21], 8 µg/mL.
In the case of `CCC1OC(=O)C(C)C(=O)C(C)C(OC2OC(C)CC(N(C)C)C2O)C(C)(OC(N)=O)CC(C)C(=NO)C(C)C2OC(=O)OC12C` (centres unmarked) [Ex. 2, Compound of Formula (II-A), wherein A is —O—; X is N—OH; —M— is Absent; R^2 is Hydrogen, and R^p is Hydrogen], the MIC with Escherichia coli DC-2 was more than 100 µg/mL; in test [1], 3.1 µg/mL; in test [2], 1.56 µg/mL; in [3], 1.56 µg/mL; in test [4], more than 100 µg/mL; in [5], 0.39 µg/mL. The MIC was more than 100 µg/mL in the test on Candida albicans CCH 442; 50 µg/mL in test [7]; 1.56 µg/mL in test [9]; 0.2 µg/mL in test [10]; 6.2 µg/mL in test [11]; more than 100 µg/mL in the test with Escherichia coli JUHL. The MIC in test [12] is 3.1 µg/mL; in [13], 0.39 µg/mL; against Escherichia coli SS, 1.56 µg/mL; in test [14], more than 100 µg/mL; in [15] it was more than 100 µg/mL; in test [17], 1.56 µg/mL. The MIC (antibacterial activity, Table 2) in test [22] is more than 128 µg/mL; in [18], 0.25 µg/mL; in [19], 0.25 µg/mL; in [20], 8 µg/mL; in test [21] it was 8 µg/mL.
